# Experimental data published in publication PMC9516332 (Frontiers in Oncology, 2022).
# Where two headings read alike, the source gives them in different places.
# Experiments:
# Assay in all cases: Kinase panel profiling at 1 µmol/L (MSA or IMAP), percentage inhibition
# Type in all cases: biochemical
# [1] = target: panel of 255 wild-type kinases (Homo sapiens, UniProt Q13555); details: read-out: %-inhibition CaMK2γ
# [2] = target: panel of 255 wild-type kinases (Homo sapiens, UniProt P49137); details: read-out: %-inhibition at 1 µmol/L, MAPKAPK2
# [3] = target: panel of 255 wild-type kinases (Homo sapiens, UniProt Q14289); details: read-out: %-inhibition at 1 µmol/L, PYK2
# [4] = target: T1, panel of 255 wild-type kinases (Homo sapiens, UniProt Q9UQB9); details: read-out: %-inhibition AurC
# T1 sequence (Q9UQB9 1-309): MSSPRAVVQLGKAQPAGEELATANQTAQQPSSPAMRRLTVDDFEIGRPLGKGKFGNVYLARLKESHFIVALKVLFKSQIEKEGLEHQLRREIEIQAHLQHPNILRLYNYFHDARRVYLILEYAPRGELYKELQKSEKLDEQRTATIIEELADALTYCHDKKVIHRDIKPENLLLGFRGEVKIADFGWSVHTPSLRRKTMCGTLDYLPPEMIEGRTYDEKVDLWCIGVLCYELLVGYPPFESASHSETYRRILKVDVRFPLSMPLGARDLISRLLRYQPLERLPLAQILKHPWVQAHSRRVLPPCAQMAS
# [5] = target: T2, panel of 255 wild-type kinases (Homo sapiens, UniProt Q96PY6); details: read-out: %-inhibition, NEK1
# T2 sequence (Q96PY6 1-1258): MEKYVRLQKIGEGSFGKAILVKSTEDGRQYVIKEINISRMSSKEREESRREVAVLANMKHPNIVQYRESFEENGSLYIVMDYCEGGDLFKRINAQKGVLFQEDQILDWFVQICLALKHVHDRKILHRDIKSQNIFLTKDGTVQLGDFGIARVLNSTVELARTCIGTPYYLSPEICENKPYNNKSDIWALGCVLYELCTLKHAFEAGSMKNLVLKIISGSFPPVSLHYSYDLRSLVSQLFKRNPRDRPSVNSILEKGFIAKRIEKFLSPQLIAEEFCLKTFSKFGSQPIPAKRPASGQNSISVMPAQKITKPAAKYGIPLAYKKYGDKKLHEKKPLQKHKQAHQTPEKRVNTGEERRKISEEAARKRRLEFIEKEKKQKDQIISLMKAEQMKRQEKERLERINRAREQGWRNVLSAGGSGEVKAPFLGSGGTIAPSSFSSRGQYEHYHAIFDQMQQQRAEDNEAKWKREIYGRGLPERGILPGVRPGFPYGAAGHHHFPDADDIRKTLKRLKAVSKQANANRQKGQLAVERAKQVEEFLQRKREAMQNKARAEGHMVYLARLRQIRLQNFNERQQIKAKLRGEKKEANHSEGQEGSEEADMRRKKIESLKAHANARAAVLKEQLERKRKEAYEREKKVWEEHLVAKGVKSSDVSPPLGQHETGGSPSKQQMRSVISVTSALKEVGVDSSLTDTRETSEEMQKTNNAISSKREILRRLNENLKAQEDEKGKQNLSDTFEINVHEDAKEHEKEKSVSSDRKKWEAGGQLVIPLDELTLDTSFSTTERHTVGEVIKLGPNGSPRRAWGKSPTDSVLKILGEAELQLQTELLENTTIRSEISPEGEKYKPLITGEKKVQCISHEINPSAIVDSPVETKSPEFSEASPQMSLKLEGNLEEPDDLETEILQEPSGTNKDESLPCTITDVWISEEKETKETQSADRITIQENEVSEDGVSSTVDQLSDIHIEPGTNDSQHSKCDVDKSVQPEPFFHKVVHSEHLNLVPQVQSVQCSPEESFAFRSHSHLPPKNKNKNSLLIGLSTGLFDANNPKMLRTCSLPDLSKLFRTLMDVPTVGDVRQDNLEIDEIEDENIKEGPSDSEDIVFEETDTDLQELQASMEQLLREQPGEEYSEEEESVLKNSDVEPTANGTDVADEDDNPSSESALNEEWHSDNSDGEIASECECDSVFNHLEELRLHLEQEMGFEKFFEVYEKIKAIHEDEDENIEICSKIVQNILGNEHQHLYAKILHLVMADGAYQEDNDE
# [6] = target: panel of 255 wild-type kinases (Homo sapiens, UniProt Q02763); details: read-out: %-inhibition at 1 µmol/L, TIE2
# [7] = target: panel of 255 wild-type kinases (Homo sapiens, UniProt P51617); details: read-out: %-inhibition at 1 µmol/L, IRAK1
# [8] = target: T3, panel of 255 wild-type kinases (Homo sapiens, UniProt Q8TDC3); details: read-out: %-inhibition BRSK1
# T3 sequence (Q8TDC3 1-778): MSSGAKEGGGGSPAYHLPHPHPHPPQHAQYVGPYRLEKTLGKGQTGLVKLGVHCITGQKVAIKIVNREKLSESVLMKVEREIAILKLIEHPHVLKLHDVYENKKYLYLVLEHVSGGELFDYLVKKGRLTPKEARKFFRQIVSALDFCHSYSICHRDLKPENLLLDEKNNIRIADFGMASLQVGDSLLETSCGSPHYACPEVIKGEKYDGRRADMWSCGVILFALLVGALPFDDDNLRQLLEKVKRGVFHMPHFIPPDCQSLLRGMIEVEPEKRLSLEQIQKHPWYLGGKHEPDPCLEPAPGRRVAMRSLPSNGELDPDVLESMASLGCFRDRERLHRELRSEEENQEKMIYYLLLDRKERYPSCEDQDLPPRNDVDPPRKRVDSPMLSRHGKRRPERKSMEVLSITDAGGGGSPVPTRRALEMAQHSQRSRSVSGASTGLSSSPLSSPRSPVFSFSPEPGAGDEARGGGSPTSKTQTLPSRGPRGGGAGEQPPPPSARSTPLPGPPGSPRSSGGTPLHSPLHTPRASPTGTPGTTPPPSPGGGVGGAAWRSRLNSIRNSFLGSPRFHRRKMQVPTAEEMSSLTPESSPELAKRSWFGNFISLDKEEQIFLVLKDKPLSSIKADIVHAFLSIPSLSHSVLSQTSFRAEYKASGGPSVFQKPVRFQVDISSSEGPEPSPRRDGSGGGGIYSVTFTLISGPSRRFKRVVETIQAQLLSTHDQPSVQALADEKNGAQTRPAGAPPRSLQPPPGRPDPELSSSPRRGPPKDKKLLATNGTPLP
# [9] = CaMK2γ kinase assay, 1 µmol/L single concentration
# [10] = kinase MAPKAPK2, 1 µmol/L single concentration
# [11] = kinase PYK2, 1 µmol/L single concentration
# [12] = AurC kinase assay, 1 µmol/L single concentration
# [13] = NEK1, 1 µmol/L single concentration
# [14] = kinase TIE2, 1 µmol/L single concentration
# [15] = kinase IRAK1, 1 µmol/L single concentration
# [16] = BRSK1 kinase assay, 1 µmol/L single concentration
SMILES,"inhibition at 1 µM [1, 9] [%]","inhibition at 1 µM [2, 10] [%]","inhibition at 1 µM [3, 11] [%]","inhibition at 1 µM [4, 12] [%]","inhibition at 1 µM [5, 13] [%]","inhibition at 1 µM [6, 14] [%]","inhibition at 1 µM [7, 15] [%]","inhibition at 1 µM [8, 16] [%]",inhibition at 1 µM [1] [%],inhibition at 1 µM [2] [%],inhibition at 1 µM [3] [%],inhibition at 1 µM [4] [%],inhibition at 1 µM [5] [%],inhibition at 1 µM [6] [%],inhibition at 1 µM [7] [%],inhibition at 1 µM [8] [%]
Cc1nc(NC(=O)N2CCC[C@H]2C(N)=O)sc1-c1ccnc(C(C)(C)C(F)(F)F)c1 [alpelisib],0.455,-16,-4,4.51,-0.542,-0.712,-5.3,12,–,–,–,–,–,–,–,–
Cn1cc(-c2cc3c(N4CCN(c5ncc([C@@](C)(N)c6ccc(F)cc6)cn5)CC4)ncnn3c2)cn1 [avapritinib],-4,-0.02,1,14,56,3.23,8,8.49,–,–,–,–,–,–,–,–
Cn1cnc2c(F)c(Nc3ccc(Br)cc3F)c(C(=O)NOCCO)cc21 [binimetinib],-3.65,-13,2.41,-6.37,-1.21,2.63,2.19,-0.585,–,–,–,–,–,–,–,–
CNC(=O)c1ccc(-c2cnc3ncc(Cc4ccc5ncccc5c4)n3n2)cc1F [capmatinib],–,–,–,–,–,–,–,–,-1.68,-28,-2.25,-4.72,-8,-3.44,35,0.113
COc1cc2ncnc(Nc3ccc(F)c(Cl)c3)c2cc1NC(=O)/C=C/CN1CCCCC1 [dacomitinib],2.37,-40,1.4,0.922,0.762,16,76,14,–,–,–,–,–,–,–,–
C[C@H](Nc1ncnc2nc[nH]c12)c1cc2cccc(Cl)c2c(=O)n1-c1ccccc1 [duvelisib],0.463,-16,-3.37,10,-3.74,-0.0949,-8,0.274,–,–,–,–,–,–,–,–
COC(=O)N[C@@H](C)CNc1nccc(-c2cn(C(C)C)nc2-c2cc(Cl)cc(NS(C)(=O)=O)c2F)n1 [encorafenib],-3.25,-11,4,-10,2.84,6,21,1.38,–,–,–,–,–,–,–,–
CN1CCN(c2ccc(C(=O)Nc3n[nH]c4ccc(Cc5cc(F)cc(F)c5)cc34)c(NC3CCOCC3)c2)CC1 [entrectinib],17,-14,96,67,-3.78,72,16,8,–,–,–,–,–,–,–,–
CCc1nc(C(N)=O)c(Nc2ccc(N3CCC(N4CCN(C)CC4)CC3)c(OC)c2)nc1NC1CCOCC1 [gilteritinib],62,-27,93,41,5.59,41,84,23,–,–,–,–,–,–,–,–
CCN1CCN(c2ccc(Nc3cc(N(C)C(=O)Nc4c(Cl)c(OC)cc(OC)c4Cl)ncn3)cc2)CC1 [infigratinib],-3.37,-32,13,-7.58,-5,63,–,1.2,–,–,–,–,–,–,–,–
O=C(Nc1cnn2ccc(N3CCC[C@@H]3c3cc(F)ccc3F)nc12)N1CC[C@H](O)C1 [larotrectinib],-0.126,-13,5.34,-0.0475,-2.72,1.84,-0.211,-0.915,–,–,–,–,–,–,–,–
C[C@H]1Oc2cc(cnc2N)-c2c(nn(C)c2C#N)CN(C)C(=O)c2ccc(F)cc21 [lorlatinib],10,-14,–,19,0.741,17,10,29,–,–,–,–,–,–,–,–
CCN1C(=O)N(c2c(F)c(OC)cc(OC)c2F)Cc2cnc3[nH]c(CN4CCOCC4)cc3c21 [pemigatinib],5,-0.432,8,5,10,28,-5.31,0.395,–,–,–,–,–,–,–,–
FC(F)(F)c1ccc(CNc2ccc(Cc3c[nH]c4ncc(Cl)cc34)cn2)cn1 [pexidartinib],0.769,-32,3,68,-1.38,14,-5,9,–,–,–,–,–,–,–,–
CO[C@]1(C(=O)N[C@@H](C)c2ccc(-n3cc(F)cn3)nc2)CC[C@H](c2nc(C)cc(Nc3cc(C)[nH]n3)n2)CC1 [pralsetinib],-3,-31,64,36,-5,5.49,9,12,–,–,–,–,–,–,–,–
